Experimental data published in patent EP3807270B1, “NOVEL HETEROARYL HETEROCYCLYL COMPOUNDS FOR THE TREATMENT OF AUTOIMMUNE DISEASE” (F. Hoffmann-La Roche AG, priority 2018, dated 2019).

Key:
[1] = Human microsome stability assay; type: in vitro ADME; conditions: 1 µM test compound, 0.5 mg/mL liver microsomal protein, 37 °C
Procedure: The human microsomal stability assay is used for early assessment of metabolic stability of a test compound in human liver microsomes.
Human liver microsomes (Cat.NO.: 452117, Corning, USA;Cat.NO.:H2610, Xenotech, USA) were preincubated with test compound for 10 minutes at 37 °C in 100 mM potassium phosphate buffer, pH 7.4. The reactions were initiated by adding NADPH regenerating system. The final incubation mixtures contained 1 µM test compound, 0.5 mg/mL liver microsomal protein, 1 mM MgClz, 1 mM NADP, 1 unit/mL isocitric dehydrogenase and 6 mM isocitric acid in 100 mM potassium phosphate buffer, pH 7.4. After incubation times of 0, 3, 6, 9, 15 and 30 minutes at 37 °C, 300 µL of cold acetonitrile (including internal standard) was added to 100 µL incubation mixture to terminate the reaction. Following precipitation and centrifugation, the amount of compound remaining in the samples were determined by LC-MS/MS. Controls of no NADPH regenerating system at zero and 30 minutes were also prepared and analyzed. […] Table 6. Human liver microsome stability of the compounds of present invention

hERG channel = target: T1, hERG channel (Homo sapiens, UniProt Q12809); assay: hERG channel inhibition assay (patch-clamp, CHO hERG cells); type: cell-based; conditions: for IC50 / IC20: CHO hERG cells, whole-cell patch-clamp; for IC20: human, CHO cells stably expressing hERG; for hERG IC20 / TLR8 IC50 / hERG IC20 / TLR7 IC50 / hERG IC20 / TLR9 IC50: safety ratio; for hERG IC20 / TLR7 IC50: TLR7 IC50 of ER compounds from Table 1; for hERG IC20 / TLR9 IC50: TLR9 IC50 of ER compounds from Table 1
T1 construct: expressed in transfected cells; host or cells: CHO (Chinese hamster ovary)
Procedure: The hERG K^+ channels were cloned in humans and stably expressed in a CHO (Chinese hamster ovary) cell line. CHOhERG cells were used for patch-clamp (voltage-clamp, whole-cell) experiments. Cells were stimulated by a voltage pattern to activate hERG channels and conduct IKhERG currents (rapid delayed outward rectifier potassium current of the hERG channel). After the cells were stabilized for a few minutes, the amplitude and kinetics of IKhERG were recorded at a stimulation frequency of 0.1 Hz (6 bpm). Thereafter, the test compound was added to the preparation at increasing concentrations. For each concentration, an attempt was made to reach a steady-state effect, usually, this was achieved within 3-10 min at which time the next highest concentration was applied. The amplitude and kinetics of IKhERG are recorded in each concentration of the drug which were compared to the control values (taken as 100%). (references: Redfern WS, Carlsson L, Davis AS, Lynch WG, MacKenzie I, Palethorpe S, Siegl PK, Strang I, Sullivan AT, Wallis R, Camm AJ, Hammond TG. 2003; Relationships between preclinical cardiac electrophysiology, clinical QT interval prolongation and torsade de pointes for a broad range of drugs: evidence for a provisional safety margin in drug development. Cardiovasc. Res. 58:32-45, Sanguinetti MC, Tristani-Firouzi M. 2006; hERG potassium channels and cardiac arrhythmia. Nature 440:463-469, Webster R, Leishman D, Walker D. 2002; Towards a drug concentration effect relationship for QT prolongation and torsades de pointes. Curr. Opin. Drug Discov. Devel. 5:116-26).
Table 3. hERG and safety ratio results

T1 sequence (Q12809 whole entry): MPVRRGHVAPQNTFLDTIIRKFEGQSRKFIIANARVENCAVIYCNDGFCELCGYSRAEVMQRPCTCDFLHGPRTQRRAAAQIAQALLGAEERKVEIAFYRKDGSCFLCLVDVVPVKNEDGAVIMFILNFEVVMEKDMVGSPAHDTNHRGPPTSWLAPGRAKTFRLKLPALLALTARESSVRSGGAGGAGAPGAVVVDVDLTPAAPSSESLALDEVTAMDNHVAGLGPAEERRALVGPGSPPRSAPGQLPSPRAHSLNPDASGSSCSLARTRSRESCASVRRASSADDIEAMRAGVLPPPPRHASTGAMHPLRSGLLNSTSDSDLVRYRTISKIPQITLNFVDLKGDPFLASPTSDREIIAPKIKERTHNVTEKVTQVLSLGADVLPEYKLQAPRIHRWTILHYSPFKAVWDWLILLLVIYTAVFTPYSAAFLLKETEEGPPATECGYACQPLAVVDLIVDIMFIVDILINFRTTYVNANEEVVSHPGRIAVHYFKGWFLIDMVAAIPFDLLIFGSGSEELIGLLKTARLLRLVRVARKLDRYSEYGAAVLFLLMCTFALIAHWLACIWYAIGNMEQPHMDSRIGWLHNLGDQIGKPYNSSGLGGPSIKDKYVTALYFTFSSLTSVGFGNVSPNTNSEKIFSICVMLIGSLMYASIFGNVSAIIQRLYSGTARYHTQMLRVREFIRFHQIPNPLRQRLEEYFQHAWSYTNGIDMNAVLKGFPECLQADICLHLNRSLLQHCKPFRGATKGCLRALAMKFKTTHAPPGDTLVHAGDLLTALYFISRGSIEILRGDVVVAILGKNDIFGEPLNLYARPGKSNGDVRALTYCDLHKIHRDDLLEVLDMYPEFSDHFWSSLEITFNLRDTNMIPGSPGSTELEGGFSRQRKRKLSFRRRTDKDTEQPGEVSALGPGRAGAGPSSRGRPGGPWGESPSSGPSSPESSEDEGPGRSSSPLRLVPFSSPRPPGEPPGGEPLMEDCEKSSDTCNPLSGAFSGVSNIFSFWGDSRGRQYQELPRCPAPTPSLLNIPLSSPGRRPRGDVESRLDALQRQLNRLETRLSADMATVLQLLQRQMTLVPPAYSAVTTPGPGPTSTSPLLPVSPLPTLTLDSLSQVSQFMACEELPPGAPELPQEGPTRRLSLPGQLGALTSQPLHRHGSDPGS

For `C[C@@H]1CN(c2ccc(C#N)c3nccnc23)C[C@H](CN2CCN(c3cc4c(cn3)[C@H](C)NCC4)CC2)O1` (single isomer, unassigned) [Example 85], the “Clearance of Human microsome” value [1] was 7.83 mL/min/kg.

In the case of `C[C@@H]1CN(c2ccc(C#N)c3ncccc23)C[C@H](CN2CC3(C2)CN(c2cnc4c(n2)CCNC4)CCO3)O1` [Example 50, 5-[(2R,6S)-2-methyl-6-[[8-(5,6,7,8-tetrahydropyrido[3,4-b]pyrazin-2-yl)-5-oxa-2,8-diazaspiro [3.5]nonan-2-yl]methyl]morpholin-4-yl] quinoline-8-carbonitrile], the IC50 (hERG channel) is reported as > 20 µM, the IC20 (hERG channel) is reported as > 10 µM and the “hERG IC20 / TLR8 IC50” value (hERG channel) is reported as >3125.0. For the same compound, the “hERG IC20 / TLR7 IC50” value (hERG channel) was >2702.7 and the “hERG IC20 / TLR9 IC50” value (hERG channel) was > 144.9.

In the case of `C[C@@H]1CN(c2ccc(C#N)c3ncccc23)C[C@H](CN2CCN(c3ccc4c(n3)CCNC4)CC2)O1` [Example 14, 5-[(2R,6S)-2-methyl-6-[[4-(5,6,7,8-tetrahydro-1,6-naphthyridin-2-yl)piperazin-1-yl]methyl]morpholin-4-yl]quinoline-8-carbonitrile], the IC50 (hERG channel) is reported as > 20 µM, the IC20 (hERG channel) is reported as 7.07 µM and the “hERG IC20 / TLR8 IC50” value (hERG channel) is reported as 1725.4. The “hERG IC20 / TLR7 IC50” value (hERG channel) was 673.7 and the “hERG IC20 / TLR9 IC50” value (hERG channel) was 122.8.

With `CC1NCc2cc(N3CCN(C[C@H]4CN(c5ccc(C#N)c6ncccc56)C[C@@H](C)O4)CC3)ccc21` (stereo partly drawn) [Example 28, 5-[(2R,6S)-2-methyl-6-[[4-(1-methylisoindolin-5-yl)piperazin-1-yl]methyl]morpholin-4-yl]quinoline-8-carbonitrile] the “Clearance of Human microsome” value [1] was 6.15 mL/min/kg.

With `C[C@@H]1CN(c2ccc(C#N)c3nccnc23)C[C@H](CN2CCN(c3cnc4c(c3)CNC4)CC2)O1` [Example 25, 8-[(2S,6R)-2-[[4-(6,7-dihydro-5H-pyrrolo[3,4-b]pyridin-3-yl)piperazin-1-yl]methyl]-6-methyl-morpholin-4-yl] quinoxaline-5-carbonitrile] the IC50 (hERG channel) was > 20 µM, the IC20 (hERG channel) was > 10 µM and the “hERG IC20 / TLR8 IC50” value (hERG channel) was >584.8. For the same compound, the “hERG IC20 / TLR7 IC50” value (hERG channel) was >520.8 and the “hERG IC20 / TLR9 IC50” value (hERG channel) was >111.7.

With `COc1ccc(N2CCN(C[C@H]3CN(c4ccc(C#N)c5ncccc45)C[C@@H](C)O3)CC2)cc1` [Example R1, 5-[(2S,6R)-2-[[4-(4-methoxyphenyl)piperazin-1-yl]methyl]-6-methyl-morpholin-4-yl]quinoline-8-carbonitrile, reference compound] the IC50 (hERG channel) was 2.74 µM, the IC20 (hERG channel) was 0.879 µM and the “hERG IC20 / TLR8 IC50” value (hERG channel) was 6.2. The “hERG IC20 / TLR7 IC50” value (hERG channel) was 9.3 and the “hERG IC20 / TLR9 IC50” value (hERG channel) was 0.1.

With `C[C@@H]1Cc2cc(N3CCN(C[C@H]4CN(c5ccc(C#N)c6nccnc56)C[C@@H](C)O4)CC3)ncc2CN1` (single isomer, unassigned) [Example 83] the “Clearance of Human microsome” value [1] was 8.31 mL/min/kg.

For `C[C@@H]1CN(c2ccc(C#N)c3ncccc23)C[C@H](CN2CCN(c3cc4c(cn3)CNCC4)CC2)O1` [Example 19, 5-[(2R,6S)-2-methyl-6-[[4-(5,6,7,8-tetrahydro-2,7-naphthyridin-3-yl)piperazin-1-yl]methyl]morpholin-4-yl]quinoline-8-carbonitrile], the IC50 (hERG channel) was > 20 µM, the IC20 (hERG channel) was > 10 µM and the “hERG IC20 / TLR8 IC50” value (hERG channel) was >2283.1. The “hERG IC20 / TLR7 IC50” value (hERG channel) was >1118.6 and the “hERG IC20 / TLR9 IC50” value (hERG channel) was >158.3.

With `C[C@@H]1CN(c2ccc(C#N)c3nccnc23)C[C@H](CN2CCN(c3cc4c(cn3)CCNC4)CC2)O1` [Example 80, 8-[(2R,6S)-2-methyl-6-[[4-(5,6,7,8-tetrahydro-2,6-naphthyridin-3-yl)piperazin-1-yl]methyl]morpholin-4-yl]quinoxaline-5-carbonitrile] the “Clearance of Human microsome” value [1] was 6.15 mL/min/kg.

With `C[C@@H]1CN(c2ccc(C#N)c3ncccc23)C[C@H](CN2CCN(c3ccc4c(c3)CCNC4)CC2)O1` [Example 5, 5-[(2R,6S)-2-methyl-6-[[4-(1,2,3,4-tetrahydroisoquinolin-6-yl)piperazin-1-yl]methyl]morpholin-4-yl]quinoline-8-carbonitrile] the IC50 (hERG channel) was > 20 µM, the IC20 (hERG channel) was > 10 µM and the “hERG IC20 / TLR8 IC50” value (hERG channel) was >497.5. For the same compound, the “hERG IC20 / TLR7 IC50” value (hERG channel) was >320.5 and the “hERG IC20 / TLR9 IC50” value (hERG channel) was >156.0.

For `C[C@@H]1CN(c2ccc(C#N)c3ncccc23)C[C@H](CN2CCN(c3ccc4c(c3)CNC4)C(CO)C2)O1` (stereo partly drawn) [Example 13, 5-[(2S,6R)-2-[[3-(hydroxymethyl)-4-isoindolin-5-yl-piperazin-1-yl]methyl]-6-methyl-morpholin-4-yl]quinoline-8-carbonitrile], the “Clearance of Human microsome” value [1] was 8.00 mL/min/kg.

For `C[C@@H]1CN(c2ccc(C#N)c3ncccc23)C[C@H](CN2CCN(c3cnc4c(c3)CNCC4)CC2)O1` [Example 21, 5-[(2R,6S)-2-methyl-6-[[4-(5,6,7,8-tetrahydro-1,6-naphthyridin-3-yl)piperazin-1-yl]methyl]morpholin-4-yl]quinoline-8-carbonitrile], the IC50 (hERG channel) was > 20 µM, the IC20 (hERG channel) was > 10 µM and the “hERG IC20 / TLR8 IC50” value (hERG channel) was >1098.9. For the same compound, the “hERG IC20 / TLR7 IC50” value (hERG channel) was >900.9 and the “hERG IC20 / TLR9 IC50” value (hERG channel) was >193.8.

In the case of `C[C@@H]1CN(c2ccc(C#N)c3ncccc23)C[C@H](CN2CCN(c3ccc4c(n3)CNC4)CC2)O1` [Example 30, 5-[(2S,6R)-2-[[4-(6,7-dihydro-5H-pyrrolo[3,4-b]pyridin-2-yl)piperazin-1-yl]methyl]-6-methyl-morpholin-4-yl] quinoline-8-carbonitrile], the IC50 (hERG channel) is reported as > 20 µM, the IC20 (hERG channel) is reported as > 10 µM and the “hERG IC20 / TLR8 IC50” value (hERG channel) is reported as >1515.2. The “hERG IC20 / TLR7 IC50” value (hERG channel) was >840.3 and the “hERG IC20 / TLR9 IC50” value (hERG channel) was >246.3.

In the case of `C[C@@H]1CN(c2ccc(C#N)c3ncsc23)C[C@H](CN2CCN(c3cnc4c(c3)CNC4)CC2)O1` [Example 8, 7-[(2S,6R)-2-[[4-(6,7-dihydro-5H-pyrrolo[3,4-b]pyridin-3-yl)piperazin-1-yl]methyl]-6-methyl-morpholin-4-yl]-1,3-benzothiazole-4-carbonitrile], the IC50 (hERG channel) is reported as > 20 µM, the IC20 (hERG channel) is reported as > 10 µM and the “hERG IC20 / TLR8 IC50” value (hERG channel) is reported as >3333.3. For the same compound, the “hERG IC20 / TLR7 IC50” value (hERG channel) was >1020.4 and the “hERG IC20 / TLR9 IC50” value (hERG channel) was >207.5.

With `C[C@@H]1CN(c2ccc(C#N)c3ncccc23)C[C@H](CN2CCN(c3ccc4c(c3)CN(CCO)C4)CC2)O1` [Example 16, 5-[(2S,6R)-2-[[4-[2-(2-hydroxyethyl)isoindolin-5-yl]piperazin-1-yl]methyl]-6-methyl-morpholin-4-yl]quinoline-8-carbonitrile] the IC50 (hERG channel) was > 20 µM, the IC20 (hERG channel) was > 10 µM and the “hERG IC20 / TLR8 IC50” value (hERG channel) was >1000.0. For the same compound, the “hERG IC20 / TLR7 IC50” value (hERG channel) was >490.2 and the “hERG IC20 / TLR9 IC50” value (hERG channel) was >110.4.

For `CC1NCc2ncc(N3CCN(C[C@H]4CN(c5ccc(C#N)c6ncccc56)C[C@@H](C)O4)CC3)cc21` (stereo partly drawn) [Example 41, 5-[(2R,6S)-2-methyl-6-[[4-(5-methyl-6,7-dihydro-5H-pyrrolo[3,4-b]pyridin-3-yl)piperazin-1-yl]methyl]morpholin-4-yl]quinoline-8-carbonitrile], the IC50 (hERG channel) was > 20 µM, the IC20 (hERG channel) was > 10 µM and the “hERG IC20 / TLR8 IC50” value (hERG channel) was >574.7. For the same compound, the “hERG IC20 / TLR7 IC50” value (hERG channel) was >354.6 and the “hERG IC20 / TLR9 IC50” value (hERG channel) was >166.7.

With `C[C@@H]1CN(c2ccc(C#N)c3ncccc23)C[C@H](CN2CCN(c3cnc4c(c3)CN[C@H]4C)CC2)O1` (single isomer, unassigned) [Example 67] the “Clearance of Human microsome” value [1] was 6.15 mL/min/kg.

With `C[C@@H]1CN(c2ccc(C#N)c3nccnc23)C[C@H](CN2CCN(c3cc4c(cn3)C[C@H](C)NC4)CC2)O1` (single isomer, unassigned) [Example 81] the “Clearance of Human microsome” value [1] was 6.15 mL/min/kg.

In the case of `C[C@@H]1Cc2cnc(N3CCN(C[C@H]4CN(c5ccc(C#N)c6nccnc56)C[C@@H](C)O4)CC3)cc2CN1` (single isomer, unassigned) [Example 82], the “Clearance of Human microsome” value [1] is reported as 8.84 mL/min/kg.

In the case of `C[C@@H]1CN(c2ccc(C#N)c3ncccc23)C[C@H](CN2CCN(c3ccc4c(c3)CCNC4CO)CC2)O1` (stereo partly drawn) [Example 24, 5-[(2S,6R)-2-[[4-[1-(hydroxymethyl)-1,2,3,4-tetrahydroisoquinolin-6-yl]piperazin-1-yl]methyl]-6-methyl-morpholin-4-yl]quinoline-8-carbonitrile], the “Clearance of Human microsome” value [1] is reported as 6.15 mL/min/kg.

For `C[C@@H]1CN(c2ccc(C#N)c3ncccc23)C[C@H](CN2CCN(c3ccc4c(n3)CN[C@H]4C)CC2)O1` (single isomer, unassigned) [Example 63], the “Clearance of Human microsome” value [1] was 6.15 mL/min/kg.
